{"source": "patent US20060166900A1", "about": "“Salt of morphine-6-glucuronide” (CeNeS Limited, priority 2002, published 2006)", "type_in_all_cases": "physicochemical", "key": {"[1]": {"experiment": "Visual appearance on storage (Example 3)", "method": "(§1) Each test material was stored between 2-8*C prior to placing on stability. Each material was sub-divided into 900 mg aliquots, transferred to brown opaque HDPE plastic bottles and flushed with Argon prior to sealing. Sufficient samples were provided for each time point as well as spares for each storage condition. The samples were placed in appropriate incubators previously commissioned at storage conditions 25° C./60% RH, 40° C./75% RH and 60° C.\nThe samples were stored for analysis according to the following table: […]"}, "[2]": {"experiment": "Water content by Karl Fisher analysis on storage (Example 3)", "method": "Water content (% w/w) by Karl Fisher analysis\nas §1\nWater Content by Karl Fisher Analysis\nWater content was determined in duplicate on an aliquot of equilibrated material (approximately 100 mg) using a Tritrino 720 KFS Titrator."}, "[3]": {"experiment": "Colour of solution by visible spectrophotometry on storage (Example 3)", "settings": "5% w/v solution in water", "method": "Colour of solution by UV spectrophotometry.\nas §1\nColour by Visible Spectrophotometry\nA 5% w/v solution of test material was prepared in water and the absorbance measured at 420 nm in a 1 cm silica cell using a Unicam UV4 Visible/UV spectrophotometer."}, "[4]": {"experiment": "Stability indicating HPLC assay and related substances on storage (Example 3)", "method": "Assay (% w/w) and related substances determination\nas §1\nTesting Procedures Test for Identity Content and Impurities\nTesting was performed in duplicate (2×25 mg) in accordance with a stability indicating HPLC assay method. The assay results were reported as M6G as is, M6G as the anhydrous, solvent free material and the anhydrous solvent free material corrected for the salt form using the relevant conversion factor."}}, "data": [{"smiles": "CN1CCC23c4c5ccc(O)c4OC2C(OC2OC(C(=O)O)C(O)C(O)C2O)C=CC3C1C5.O=P(O)(O)O", "note": "(stereo not shown) [Morphine-6-glucuronide phosphate]", "values": [{"measurement": "Appearance", "setting": "[1]; 1 month, 25° C./60% RH", "result": "White crystalline powder"}, {"measurement": "Appearance", "setting": "[1]; 1 month, 40° C./75% RH", "result": "Slightly yellow crystalline powder"}, {"measurement": "Appearance", "setting": "[1]; 1 month, 60° C.", "result": "Pale yellow crystalline powder"}, {"measurement": "Appearance", "setting": "[1]; 3 months, 25° C./60% RH", "result": "White crystalline powder"}, {"measurement": "Appearance", "setting": "[1]; 3 months, 25° C./60% RH, listed as phosphate", "result": "white crystalline solids"}, {"measurement": "Appearance", "setting": "[1]; 3 months, 40° C./75% RH", "result": "Slightly yellow crystalline powder"}, {"measurement": "Appearance", "setting": "[1]; Initial", "result": "White crystalline powder"}, {"measurement": "Moisture", "setting": "[2]; 1 month, 25° C./60% RH", "result": 3.91, "unit": "% w/w"}, {"measurement": "Moisture", "setting": "[2]; 1 month, 40° C./75% RH", "result": 9.28, "unit": "% w/w"}, {"measurement": "Moisture", "setting": "[2]; 1 month, 60° C.", "result": 5.12, "unit": "% w/w"}, {"measurement": "Moisture", "setting": "[2]; 3 months, 25° C./60% RH", "result": 5.06, "unit": "% w/w"}, {"measurement": "Moisture", "setting": "[2]; 3 months, 40° C./75% RH", "result": 11.88, "unit": "% w/w"}, {"measurement": "increase in moisture content compared to initial", "setting": "[2]; 40° C./75% RH", "result": "around 8%"}, {"measurement": "Moisture", "setting": "[2]; Initial", "result": 3.12, "unit": "% w/w"}, {"measurement": "Colour", "setting": "[3]; 1 month, 25° C./60% RH", "result": 0.053, "unit": "Abs@420 nm"}, {"measurement": "Colour", "setting": "[3]; 1 month, 40° C./75% RH", "result": 0.308, "unit": "Abs@420 nm"}, {"measurement": "Colour", "setting": "[3]; 1 month, 60° C.", "result": 0.787, "unit": "Abs@420 nm"}, {"measurement": "Colour", "setting": "[3]; 3 months, 25° C./60% RH", "result": 0.098, "unit": "Abs@420 nm"}, {"measurement": "Colour", "setting": "[3]; 3 months, 40° C./75% RH", "result": 0.878, "unit": "Abs@420 nm"}, {"measurement": "Colour", "setting": "[3]; Initial", "result": 0.034, "unit": "Abs@420 nm"}, {"measurement": "Known Related Substances HN33177", "setting": "[4]; 1 month, 25° C./60% RH", "result": 0.78, "unit": "%"}, {"measurement": "Known Related Substances HN67003", "setting": "[4]; 1 month, 25° C./60% RH", "result": 0.04, "unit": "%"}, {"measurement": "Known Related Substances HN75083", "setting": "[4]; 1 month, 25° C./60% RH", "result": 0.03, "unit": "%"}, {"measurement": "M6G Assay, Anhydrous basis", "setting": "[4]; 1 month, 25° C./60% RH", "result": 91.37, "unit": "% w/w"}, {"measurement": "M6G Assay, As is basis", "setting": "[4]; 1 month, 25° C./60% RH", "result": 84.57, "unit": "% w/w"}, {"measurement": "M6G Assay, Corrected for the salt form", "setting": "[4]; 1 month, 25° C./60% RH", "result": 110.76, "unit": "% w/w"}, {"measurement": "Total Known", "setting": "[4]; 1 month, 25° C./60% RH", "result": 0.85, "unit": "%"}, {"measurement": "Total Related Substances", "setting": "[4]; 1 month, 25° C./60% RH", "result": 1.41, "unit": "%"}, {"measurement": "Total Unknown", "setting": "[4]; 1 month, 25° C./60% RH", "result": 0.56, "unit": "%"}, {"measurement": "Known Related Substances HN33177", "setting": "[4]; 1 month, 40° C./75% RH", "result": 0.70, "unit": "%"}, {"measurement": "Known Related Substances HN67003", "setting": "[4]; 1 month, 40° C./75% RH", "result": 0.53, "unit": "%"}, {"measurement": "Known Related Substances HN75083", "setting": "[4]; 1 month, 40° C./75% RH", "result": 0.14, "unit": "%"}, {"measurement": "M6G Assay, Anhydrous basis", "setting": "[4]; 1 month, 40° C./75% RH", "result": 92.00, "unit": "% w/w"}, {"measurement": "M6G Assay, As is basis", "setting": "[4]; 1 month, 40° C./75% RH", "result": 80.20, "unit": "% w/w"}, {"measurement": "M6G Assay, Corrected for the salt form", "setting": "[4]; 1 month, 40° C./75% RH", "result": 111.52, "unit": "% w/w"}, {"measurement": "Total Known", "setting": "[4]; 1 month, 40° C./75% RH", "result": 1.37, "unit": "%"}, {"measurement": "Total Related Substances", "setting": "[4]; 1 month, 40° C./75% RH", "result": 3.44, "unit": "%"}, {"measurement": "Total Unknown", "setting": "[4]; 1 month, 40° C./75% RH", "result": 2.07, "unit": "%"}, {"measurement": "Known Related Substances HN33177", "setting": "[4]; 1 month, 60° C.", "result": 0.70, "unit": "%"}, {"measurement": "Known Related Substances HN67003", "setting": "[4]; 1 month, 60° C.", "result": 0.90, "unit": "%"}, {"measurement": "Known Related Substances HN75076", "setting": "[4]; 1 month, 60° C.", "result": 0.03, "unit": "%"}, {"measurement": "Known Related Substances HN75083", "setting": "[4]; 1 month, 60° C.", "result": 0.27, "unit": "%"}, {"measurement": "Known Related Substances Morphine", "setting": "[4]; 1 month, 60° C.", "result": 0.18, "unit": "%"}, {"measurement": "M6G Assay, Anhydrous basis", "setting": "[4]; 1 month, 60° C.", "result": 88.33, "unit": "% w/w"}, {"measurement": "M6G Assay, As is basis", "setting": "[4]; 1 month, 60° C.", "result": 80.69, "unit": "% w/w"}, {"measurement": "M6G Assay, Corrected for the salt form", "setting": "[4]; 1 month, 60° C.", "result": 107.08, "unit": "% w/w"}, {"measurement": "Total Known", "setting": "[4]; 1 month, 60° C.", "result": 2.08, "unit": "%"}, {"measurement": "Total Related Substances", "setting": "[4]; 1 month, 60° C.", "result": 5.43, "unit": "%"}, {"measurement": "Total Unknown", "setting": "[4]; 1 month, 60° C.", "result": 3.35, "unit": "%"}, {"measurement": "stability based on % w/w assay", "setting": "[4]; 3 month assay data", "result": "most stable"}, {"measurement": "Known Related Substances HN33177", "setting": "[4]; 3 months, 25° C./60% RH", "result": 0.78, "unit": "%"}, {"measurement": "Known Related Substances HN67003", "setting": "[4]; 3 months, 25° C./60% RH", "result": 0.16, "unit": "%"}, {"measurement": "Known Related Substances HN75076", "setting": "[4]; 3 months, 25° C./60% RH", "result": 0.03, "unit": "%"}, {"measurement": "Known Related Substances HN75083", "setting": "[4]; 3 months, 25° C./60% RH", "result": 0.19, "unit": "%"}, {"measurement": "Known Related Substances Morphine", "setting": "[4]; 3 months, 25° C./60% RH", "result": 0.07, "unit": "%"}, {"measurement": "M6G Assay, Anhydrous basis", "setting": "[4]; 3 months, 25° C./60% RH", "result": 91.16, "unit": "% w/w"}, {"measurement": "M6G Assay, As is basis", "setting": "[4]; 3 months, 25° C./60% RH", "result": 84.25, "unit": "% w/w"}, {"measurement": "M6G Assay, Corrected for the salt form", "setting": "[4]; 3 months, 25° C./60% RH", "result": 110.50, "unit": "% w/w"}, {"measurement": "Total Known", "setting": "[4]; 3 months, 25° C./60% RH", "result": 1.23, "unit": "%"}, {"measurement": "Total Related Substances", "setting": "[4]; 3 months, 25° C./60% RH", "result": 2.31, "unit": "%"}, {"measurement": "Total Unknown", "setting": "[4]; 3 months, 25° C./60% RH", "result": 1.08, "unit": "%"}, {"measurement": "Known Related Substances HN33177", "setting": "[4]; 3 months, 40° C./75% RH", "result": 0.59, "unit": "%"}, {"measurement": "Known Related Substances HN67003", "setting": "[4]; 3 months, 40° C./75% RH", "result": 0.75, "unit": "%"}, {"measurement": "Known Related Substances HN75076", "setting": "[4]; 3 months, 40° C./75% RH", "result": 0.12, "unit": "%"}, {"measurement": "Known Related Substances HN75083", "setting": "[4]; 3 months, 40° C./75% RH", "result": 0.06, "unit": "%"}, {"measurement": "Known Related Substances Morphine", "setting": "[4]; 3 months, 40° C./75% RH", "result": 0.32, "unit": "%"}, {"measurement": "M6G Assay, Anhydrous basis", "setting": "[4]; 3 months, 40° C./75% RH", "result": 92.40, "unit": "% w/w"}, {"measurement": "M6G Assay, As is basis", "setting": "[4]; 3 months, 40° C./75% RH", "result": 79.02, "unit": "% w/w"}, {"measurement": "M6G Assay, Corrected for the salt form", "setting": "[4]; 3 months, 40° C./75% RH", "result": 112.01, "unit": "% w/w"}, {"measurement": "Total Known", "setting": "[4]; 3 months, 40° C./75% RH", "result": 1.84, "unit": "%"}, {"measurement": "Total Related Substances", "setting": "[4]; 3 months, 40° C./75% RH", "result": 5.99, "unit": "%"}, {"measurement": "Total Unknown", "setting": "[4]; 3 months, 40° C./75% RH", "result": 4.15, "unit": "%"}, {"measurement": "Known Related Substances HN33177", "setting": "[4]; Initial", "result": 0.75, "unit": "%"}, {"measurement": "Known Related Substances HN67003", "setting": "[4]; Initial", "result": 0.04, "unit": "%"}, {"measurement": "Known Related Substances HN75083", "setting": "[4]; Initial", "result": 0.07, "unit": "%"}, {"measurement": "M6G Assay, Anhydrous basis", "setting": "[4]; Initial", "result": 89.21, "unit": "% w/w"}, {"measurement": "M6G Assay, As is basis", "setting": "[4]; Initial", "result": 83.90, "unit": "% w/w"}, {"measurement": "M6G Assay, Corrected for the salt form", "setting": "[4]; Initial", "result": 108.12, "unit": "% w/w"}, {"measurement": "Total Known", "setting": "[4]; Initial", "result": 0.86, "unit": "%"}, {"measurement": "Total Related Substances", "setting": "[4]; Initial", "result": 0.86, "unit": "%"}, {"measurement": "Total Unknown", "setting": "[4]; Initial", "result": 0.00, "unit": "%"}, {"measurement": "assay values throughout the study", "setting": "[4]; all storage conditions, material a phosphate/base mixture", "result": "around 110%"}]}]}
